Measured values: the supplement of paper PMC13380429

Assays:
[1] = test system: A549-ACE2 infected with SARS-CoV-2; assay: cell count relative to DMSO; higher = less toxic; settings: 24 h
[2] = test system: Caco-2; assay: cell viability relative to DMSO; higher = less toxic; settings: 72 h
[3] = test system: Calu-3; assay: as above; settings: 72 h
[4] = test system: HepG2; assay: as above; settings: 72 h
[5] = test system: U2OS; assay: as above; settings: 72 h
[6] = test system: Vero E6; assay: as above; settings: 72 h
[7] = test system: A549-ACE2 infected with SARS-CoV-2; assay: SARS-CoV-2 infection rate relative to DMSO; higher = more infection; settings: 24 h
[8] = test system: A549-ACE2; assay: drug-induced phospholipidosis relative to tamoxifen; higher = more phospholipidosis
[9] = test system: A549-ACE2 infected with SARS-CoV-2; assay: morphology score (similarity to uninfected cells); higher = more like uninfected cells; settings: 24 h
[10] = test system: Caco-2; assay: relative viability EC50 (midpoint between 100% and the lowest measured viability); higher = less toxic; settings: 72 h
[11] = test system: Calu-3; assay: as above; settings: 72 h
[12] = test system: HepG2; assay: as above; settings: 72 h
[13] = test system: U2OS; assay: as above; settings: 72 h
[14] = test system: Vero E6; assay: as above; settings: 72 h
[15] = test system: Caco-2; assay: drug sensitivity score (DSS) for viability; higher = more toxic; extreme values may be limits of the assay; settings: 72 h
[16] = test system: Calu-3; assay: as above; settings: 72 h
[17] = test system: HepG2; assay: as above; settings: 72 h
[18] = test system: U2OS; assay: as above; settings: 72 h
[19] = test system: Vero E6; assay: as above; settings: 72 h
[20] = test system: A549-ACE2; assay: phospholipidosis EC50; higher = less potent phospholipidosis inducer

CCN(CC)CCOC(=O)C1(C2CCCCC2)CCCCC1 [dicycloverine]
Settings | SARS-CoV-2 infection rate, [7] [%] | cell count, [1] [%] | cell viability, [2] [%] | cell viability, [3] [%] | cell viability, [4] [%] | cell viability, [5] [%] | cell viability, [6] [%] | morphology score, [9]
1 nM | – | – | 99.3 | 93.2 | 95.7 | 97 | 96.1 | –
10 nM | – | – | 95.6 | 104 | 97.6 | 99.3 | 94 | –
100 nM | – | – | 97.2 | 91.8 | 103 | 99.3 | 98 | –
0.3 µM | 94 | 97 | – | – | – | – | – | 0.02
1000 nM | – | – | 98.1 | 91.8 | 98.7 | 108 | 92.6 | –
3 µM | 66 | 112 | – | – | – | – | – | 0.62
10 µM | 46 | 114 | – | – | – | – | – | 0.78
10000 nM | – | – | 102 | 102 | 105 | 104 | 108 | –
30 µM | 34 | 118 | – | – | – | – | – | 0.84

drug-induced phospholipidosis [%], [8]
Settings | 0.3 µM | 0.833333 µM | 3.33333 µM | 6.66667 µM | 10 µM | 30 µM
24 h | 4.66 | 1.82 | 4.06 | 5.19 | 6.77 | 68.6
48 h | 6.16 | 1.46 | 3.34 | 3.8 | 4.6 | 45.9
72 h | 5.16 | -0.588 | 0.239 | 2.22 | 2.64 | 30.3

Settings | drug sensitivity score | relative viability EC50 [µM]
[10] | – | > 10
[11] | – | > 10
[12] | – | > 10
[13] | – | > 10
[14] | – | > 10
[15] | 0 | –
[16] | 0 | –
[17] | 0 | –
[18] | 0 | –
[19] | 0 | –

Cc1ncc(NC(=O)c2ccc(CN3CCN(C)CC3)c(C(F)(F)F)c2)cc1Nc1nccc(-c2cccnc2)n1 [flumatinib]
Settings | SARS-CoV-2 infection rate [%] | cell count [%] | cell viability [%] | morphology score | phospholipidosis EC50 [µM]
[1], 0.3 µM | – | 105 | – | – | –
[1], 3 µM | – | 120 | – | – | –
[1], 10 µM | – | 124 | – | – | –
[1], 30 µM | – | 117 | – | – | –
[2], 1 nM | – | – | 105 | – | –
[2], 10 nM | – | – | 107 | – | –
[2], 100 nM | – | – | 101 | – | –
[2], 1000 nM | – | – | 95.5 | – | –
[2], 10000 nM | – | – | 83.2 | – | –
[3], 1 nM | – | – | 104 | – | –
[3], 10 nM | – | – | 92.7 | – | –
[3], 100 nM | – | – | 102 | – | –
[3], 1000 nM | – | – | 100 | – | –
[3], 10000 nM | – | – | 93.1 | – | –
[4], 1 nM | – | – | 96.4 | – | –
[4], 10 nM | – | – | 108 | – | –
[4], 100 nM | – | – | 102 | – | –
[4], 1000 nM | – | – | 93.5 | – | –
[4], 10000 nM | – | – | 39.9 | – | –
[6], 1 nM | – | – | 95.8 | – | –
[6], 10 nM | – | – | 101 | – | –
[6], 100 nM | – | – | 99.3 | – | –
[6], 1000 nM | – | – | 97.4 | – | –
[6], 10000 nM | – | – | 84.3 | – | –
[7], 0.3 µM | 96 | – | – | – | –
[7], 3 µM | 59 | – | – | – | –
[7], 10 µM | 45 | – | – | – | –
[7], 30 µM | 19 | – | – | – | –
[9], 0.3 µM | – | – | – | 0.25 | –
[9], 3 µM | – | – | – | 0.65 | –
[9], 10 µM | – | – | – | 0.69 | –
[9], 30 µM | – | – | – | 0 | –
[20], 24 h | – | – | – | – | 3.17
[20], 48 h | – | – | – | – | 4.74
[20], 72 h | – | – | – | – | 5.39

drug-induced phospholipidosis [%], [8]
Settings | 0.3 µM | 0.833333 µM | 3.33333 µM | 6.66667 µM | 10 µM | 30 µM
24 h | 4.03 | 13.9 | 49.2 | 98.5 | 106 | 5.86
48 h | 3.51 | 7.4 | 29.5 | 74.1 | 89.4 | –
72 h | 4.57 | 8.79 | 24.7 | 66.2 | 84.5 | –

Settings | drug sensitivity score | relative viability EC50 [µM]
[10] | – | > 10
[11] | – | > 10
[12] | – | 2.28
[14] | – | > 10
[15] | 0.8 | –
[16] | 0 | –
[17] | 4.3 | –
[19] | 0.5 | –

CSc1ccc2c(c1)N(CCC1CCCCN1C)c1ccccc1S2 (stereo unspecified) [thioridazine]
Settings | SARS-CoV-2 infection rate [%] | cell count [%] | cell viability [%] | morphology score | phospholipidosis EC50 [µM]
[1], 0.1 µM | – | 106 | – | – | –
[1], 0.3 µM | – | 104 | – | – | –
[1], 1 µM | – | 110 | – | – | –
[1], 3 µM | – | 121 | – | – | –
[2], 1 nM | – | – | 110 | – | –
[2], 10 nM | – | – | 100 | – | –
[2], 100 nM | – | – | 105 | – | –
[2], 1000 nM | – | – | 105 | – | –
[2], 10000 nM | – | – | 69.5 | – | –
[3], 1 nM | – | – | 104 | – | –
[3], 10 nM | – | – | 110 | – | –
[3], 100 nM | – | – | 96.8 | – | –
[3], 1000 nM | – | – | 96.2 | – | –
[3], 10000 nM | – | – | 31.4 | – | –
[4], 1 nM | – | – | 105 | – | –
[4], 10 nM | – | – | 110 | – | –
[4], 100 nM | – | – | 104 | – | –
[4], 1000 nM | – | – | 102 | – | –
[4], 10000 nM | – | – | 44.5 | – | –
[5], 1 nM | – | – | 105 | – | –
[5], 10 nM | – | – | 103 | – | –
[5], 100 nM | – | – | 102 | – | –
[5], 1000 nM | – | – | 103 | – | –
[5], 10000 nM | – | – | 74.7 | – | –
[6], 1 nM | – | – | 106 | – | –
[6], 10 nM | – | – | 103 | – | –
[6], 100 nM | – | – | 104 | – | –
[6], 1000 nM | – | – | 102 | – | –
[6], 10000 nM | – | – | 69.7 | – | –
[7], 0.1 µM | 94 | – | – | – | –
[7], 0.3 µM | 101 | – | – | – | –
[7], 1 µM | 82 | – | – | – | –
[7], 3 µM | 21 | – | – | – | –
[9], 0.1 µM | – | – | – | 0.31 | –
[9], 0.3 µM | – | – | – | 0.1 | –
[9], 1 µM | – | – | – | 0.34 | –
[9], 3 µM | – | – | – | 0.84 | –
[20], 24 h | – | – | – | – | 3.21
[20], 48 h | – | – | – | – | 4.53
[20], 72 h | – | – | – | – | 5.9

drug-induced phospholipidosis [%], [8]
Settings | 0.3 µM | 0.833333 µM | 3.33333 µM | 6.66667 µM | 10 µM | 30 µM
24 h | 14.9 | 4.83 | 47.8 | 79.3 | 86 | 44.9
48 h | 9.22 | 4.87 | 28.5 | 86.4 | 99.3 | –
72 h | 7.14 | 2.71 | 20 | 83.7 | 117 | –

Settings | drug sensitivity score | relative viability EC50 [µM]
[11] | – | 2.72
[12] | – | 3.36
[15] | 1.1 | –
[16] | 4.3 | –
[17] | 2.8 | –
[18] | 0.8 | –
[19] | 1.2 | –

CCN(CC)CCOc1ccc2c(c1)C(=O)c1cc(OCCN(CC)CC)ccc1-2 [tilorone]
Settings | SARS-CoV-2 infection rate, [7] [%] | cell count, [1] [%] | cell viability, [2] [%] | cell viability, [3] [%] | cell viability, [4] [%] | cell viability, [5] [%] | cell viability, [6] [%] | morphology score, [9]
1 nM | – | – | 102 | 103 | 98.4 | 103 | 106 | –
10 nM | – | – | 102 | 101 | 93.2 | 104 | 104 | –
0.1 µM | 88 | 102 | – | – | – | – | – | 0.26
100 nM | – | – | 97.1 | 95.7 | 91.3 | 100 | 97.5 | –
0.3 µM | 84 | 106 | – | – | – | – | – | 0.37
1 µM | 77 | 102 | – | – | – | – | – | 0.45
1000 nM | – | – | 95 | 96.6 | 96.8 | 95.9 | 100 | –
3 µM | 46 | 108 | – | – | – | – | – | 0.5
10000 nM | – | – | 78.4 | 78.8 | 15.8 | 98.9 | 35.2 | –

drug-induced phospholipidosis [%], [8]
Settings | 0.3 µM | 0.833333 µM | 3.33333 µM | 6.66667 µM | 10 µM | 30 µM
24 h | -3.79 | -6.82 | -21.7 | -22.6 | -23.9 | -27.5
48 h | 2.58 | -4.68 | -11.7 | -11.1 | -10 | -8.85
72 h | 3.61 | -1.19 | -2.58 | 0.944 | -0.898 | –

Settings | drug sensitivity score | relative viability EC50 [µM]
[10] | – | > 10
[11] | – | > 10
[12] | – | 2.87
[13] | – | > 10
[14] | – | 3.19
[15] | 1.3 | –
[16] | 1.2 | –
[17] | 5.1 | –
[18] | 0 | –
[19] | 3.5 | –
